Data from BindingDB's records for patent US20230322789 (Broadenbio, 2023).

Biological target: Mitogen-activated protein kinase kinase kinase kinase 1 (Homo sapiens, UniProt Q92918)
Assay: HPK1 Kinase Activity Inhibition Assay
Protocol: 1. HPK1 Kinase Activity Inhibition Test. The kinase activity of HPK1 is manifested as activity of autophosphorylation and phosphorylation of downstream substrates. In the process of autophosphorylation, additional substrates are not required, and ATP is consumed to generate ADP. […] Transfer 2 μL of 2×[…] kinase solution to 384 reaction plate, add 1 μL of the test compound to the 384 reaction plate (Greiner, 784075), centrifuge for 1 minute (1000 rpm/min), incubate at 25° C. for 10 minutes. […] of the 4×ATP mixture to a 384 reaction plate, centrifuge for 1 minute (1000 rpm/mm), and incubate at 25° C. for 60 minutes. In the reaction system, the final concentration of DMSO was […]. Transfer 4 μL of ADP-Glo to a 384 reaction plate, centrifuge for 1 minute (1000 rpm/min), and incubate at 25° C. for 40 minutes. Transfer 8 μL detection solution to a 384 reaction plate, centrifuge for 1 minute (1000 rpm/min), and incubate at 25° C. for 40 minutes. The […] signal was read using a Biotek multi-function plate reader, and the […] (half inhibitory concentration) of the compound was obtained using a four-coefficient nonlinear fitting formula.

Mitogen-activated protein kinase kinase kinase kinase 1, sequence (Q92918 whole entry): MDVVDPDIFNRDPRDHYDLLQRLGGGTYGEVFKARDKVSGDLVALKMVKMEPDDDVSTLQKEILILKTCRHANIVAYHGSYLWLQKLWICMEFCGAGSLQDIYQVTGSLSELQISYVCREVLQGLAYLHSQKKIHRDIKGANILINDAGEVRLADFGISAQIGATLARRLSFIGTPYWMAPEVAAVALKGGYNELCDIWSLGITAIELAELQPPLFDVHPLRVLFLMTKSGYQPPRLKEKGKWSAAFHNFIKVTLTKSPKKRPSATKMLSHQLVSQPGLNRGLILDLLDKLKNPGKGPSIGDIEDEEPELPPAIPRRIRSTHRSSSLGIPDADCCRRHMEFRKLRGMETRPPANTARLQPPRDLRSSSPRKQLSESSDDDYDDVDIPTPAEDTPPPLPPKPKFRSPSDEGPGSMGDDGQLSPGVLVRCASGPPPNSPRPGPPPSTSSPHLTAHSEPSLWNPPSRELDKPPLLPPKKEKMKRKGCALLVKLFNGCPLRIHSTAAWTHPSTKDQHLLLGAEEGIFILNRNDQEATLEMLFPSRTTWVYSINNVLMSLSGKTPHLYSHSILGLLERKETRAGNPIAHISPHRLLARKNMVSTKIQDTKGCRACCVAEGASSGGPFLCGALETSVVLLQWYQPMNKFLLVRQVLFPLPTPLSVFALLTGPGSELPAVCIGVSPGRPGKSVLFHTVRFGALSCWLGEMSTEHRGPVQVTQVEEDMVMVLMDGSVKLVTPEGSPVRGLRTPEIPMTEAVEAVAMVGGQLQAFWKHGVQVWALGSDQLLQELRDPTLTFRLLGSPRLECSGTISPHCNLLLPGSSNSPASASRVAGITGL

IC50	Compound
< 50 nM	CCc1cccc(F)c1-n1nc2c(-c3ccc(N4CCN(CC(C)(C)O)CC4)cc3)n[nH]c2cc1=O [US20230322789, Compound 116]
< 50 nM	Cc1cccc(F)c1-n1nc2c(-c3ccc(N4CCN5C(=O)OCC5C4)nc3)n[nH]c2cc1=O (configuration not stated) [US20230322789, Compound 129]
